Common to all, as to test: Enzyme activity test, mobility shift assay (Table 1)
What all share (assay type): biochemical

The target of test [1] is CDK9/Cyclin Tl (Homo sapiens (Human), UniProt P50750). The settings on record: 2 mM ATP; read-out: CDK9 kinase IC50. On the procedure: (§1) The compound powder was dissolved in 100% DMSO to prepare a 10 mM storage solution. The storage solution was further diluted to 0.5 mM as the initial concentration, and continuously diluted 3 times to obtain 10 compound solutions with different concentrations. The compound and enzyme were pre-incubated for 0 minutes and 60 minutes, respectively, using duplicate detection.
(§2) was used as a positive control, and Mobility shift assay method was used to detect CDK kinase (such as CDK7, CDK9, CDK12 and CDK2) activity of the compounds.

The target in test [2] is CDK2/Cyclin El (Homo sapiens (Human), UniProt P24941). The settings on record: 2 mM ATP; read-out: CDK2 kinase IC50. As to the method: as §1, §2
For test [3], the target named is CDK12 (aa686-1082)/Cyclin K (Homo sapiens (Human), UniProt Q9NYV4). The settings on record: 2 mM ATP; read-out: CDK12 kinase IC50. As to the method:
The compound powder was dissolved in 100% DMSO to prepare a 10 mM storage solution. The storage solution was further diluted to 0.5 mM as the initial concentration, and continuously diluted 3 times to obtain 10 compound solutions with different concentrations. The compound and enzyme were pre-incubated for 0 minutes and 60 minutes, respectively, using duplicate detection. Compound Staurosporine having a structural formula of
as §2

Test [4] deals with CDK7/Cyclin H/MAT1 kinase (Homo sapiens (Human), UniProt P50613). The settings on record: 2 mM ATP; pre-incubated 0 and 60 minutes. As to the method:
IC50 values of the compounds for CDK7 kinase were detected in Wuxi Biortus Biosciences Co. Ltd.
as §1, §2

Sequence of CDK7/Cyclin H/MAT1 kinase (P50613 whole entry): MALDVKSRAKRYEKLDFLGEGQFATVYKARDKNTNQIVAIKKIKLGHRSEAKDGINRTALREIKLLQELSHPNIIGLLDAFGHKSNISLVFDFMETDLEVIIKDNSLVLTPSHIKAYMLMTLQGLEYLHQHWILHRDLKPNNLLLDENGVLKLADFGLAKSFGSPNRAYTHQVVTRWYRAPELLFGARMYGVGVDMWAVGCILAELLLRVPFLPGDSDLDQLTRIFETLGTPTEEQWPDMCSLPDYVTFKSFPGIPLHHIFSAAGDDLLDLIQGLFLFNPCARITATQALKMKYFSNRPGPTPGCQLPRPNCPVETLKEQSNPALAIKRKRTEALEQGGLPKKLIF
Sequence of CDK7/Cyclin H/MAT1 kinase (P51946 whole entry partner): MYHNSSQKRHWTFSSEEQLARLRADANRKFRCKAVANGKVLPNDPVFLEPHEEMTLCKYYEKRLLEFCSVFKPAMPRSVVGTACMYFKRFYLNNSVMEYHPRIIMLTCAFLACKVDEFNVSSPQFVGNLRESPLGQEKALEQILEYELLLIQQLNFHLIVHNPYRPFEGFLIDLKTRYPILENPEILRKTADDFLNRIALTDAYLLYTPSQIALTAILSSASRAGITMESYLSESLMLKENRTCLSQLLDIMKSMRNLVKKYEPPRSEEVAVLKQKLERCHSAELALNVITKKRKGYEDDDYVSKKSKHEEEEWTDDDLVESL
Sequence of CDK7/Cyclin H/MAT1 kinase (P51948 whole entry partner): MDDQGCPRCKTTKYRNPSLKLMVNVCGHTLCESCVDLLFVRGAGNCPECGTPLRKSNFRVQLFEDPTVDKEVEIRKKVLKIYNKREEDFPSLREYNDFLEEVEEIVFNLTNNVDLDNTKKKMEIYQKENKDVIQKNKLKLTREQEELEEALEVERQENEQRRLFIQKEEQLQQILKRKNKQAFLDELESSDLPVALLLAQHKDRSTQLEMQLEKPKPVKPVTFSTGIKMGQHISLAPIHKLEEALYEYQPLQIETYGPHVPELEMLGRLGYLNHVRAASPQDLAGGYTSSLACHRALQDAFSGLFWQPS
Sequence of CDK9/Cyclin Tl (P50750 whole entry): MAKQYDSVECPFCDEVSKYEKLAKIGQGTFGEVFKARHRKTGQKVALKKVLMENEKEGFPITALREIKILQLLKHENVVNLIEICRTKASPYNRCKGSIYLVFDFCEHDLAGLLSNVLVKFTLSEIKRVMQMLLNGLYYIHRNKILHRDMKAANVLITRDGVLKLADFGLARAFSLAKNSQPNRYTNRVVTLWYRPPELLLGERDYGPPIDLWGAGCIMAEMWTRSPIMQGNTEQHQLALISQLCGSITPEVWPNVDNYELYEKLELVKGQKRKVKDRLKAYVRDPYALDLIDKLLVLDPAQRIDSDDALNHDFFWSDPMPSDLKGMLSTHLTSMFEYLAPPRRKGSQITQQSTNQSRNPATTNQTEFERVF
Sequence of CDK9/Cyclin Tl (O60563 whole entry partner): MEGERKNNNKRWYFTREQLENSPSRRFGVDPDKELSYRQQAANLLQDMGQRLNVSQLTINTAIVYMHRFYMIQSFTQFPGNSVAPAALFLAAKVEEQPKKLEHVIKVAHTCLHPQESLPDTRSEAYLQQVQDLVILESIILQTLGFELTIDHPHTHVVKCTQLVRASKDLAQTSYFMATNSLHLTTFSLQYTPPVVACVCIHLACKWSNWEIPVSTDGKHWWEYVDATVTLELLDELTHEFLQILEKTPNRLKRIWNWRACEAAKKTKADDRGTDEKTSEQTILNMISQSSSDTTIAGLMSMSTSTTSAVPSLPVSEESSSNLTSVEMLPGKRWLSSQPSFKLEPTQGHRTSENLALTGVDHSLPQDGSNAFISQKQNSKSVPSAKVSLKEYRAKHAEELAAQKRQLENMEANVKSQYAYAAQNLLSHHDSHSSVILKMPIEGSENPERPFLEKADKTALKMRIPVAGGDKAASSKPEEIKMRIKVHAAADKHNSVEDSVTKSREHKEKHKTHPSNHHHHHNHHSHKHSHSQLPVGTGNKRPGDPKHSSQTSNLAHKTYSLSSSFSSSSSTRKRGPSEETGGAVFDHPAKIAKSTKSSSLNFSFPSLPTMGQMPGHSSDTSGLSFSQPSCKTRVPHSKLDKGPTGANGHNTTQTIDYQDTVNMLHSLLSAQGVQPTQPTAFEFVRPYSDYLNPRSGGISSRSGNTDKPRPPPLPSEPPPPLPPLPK
Sequence of CDK12 (aa686-1082)/Cyclin K (Q9NYV4 686-1082): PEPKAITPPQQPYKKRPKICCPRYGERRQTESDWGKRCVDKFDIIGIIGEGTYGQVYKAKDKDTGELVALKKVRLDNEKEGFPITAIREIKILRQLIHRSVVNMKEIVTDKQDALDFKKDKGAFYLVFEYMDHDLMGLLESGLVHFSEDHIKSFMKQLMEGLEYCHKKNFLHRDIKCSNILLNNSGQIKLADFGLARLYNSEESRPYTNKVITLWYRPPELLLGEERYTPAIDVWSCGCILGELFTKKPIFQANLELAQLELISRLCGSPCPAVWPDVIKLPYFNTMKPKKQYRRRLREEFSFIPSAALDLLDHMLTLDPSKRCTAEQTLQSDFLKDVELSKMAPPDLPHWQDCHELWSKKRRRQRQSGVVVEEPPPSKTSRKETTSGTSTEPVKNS
Sequence of CDK12 (aa686-1082)/Cyclin K (O75909 whole entry partner, the tested form may be a part): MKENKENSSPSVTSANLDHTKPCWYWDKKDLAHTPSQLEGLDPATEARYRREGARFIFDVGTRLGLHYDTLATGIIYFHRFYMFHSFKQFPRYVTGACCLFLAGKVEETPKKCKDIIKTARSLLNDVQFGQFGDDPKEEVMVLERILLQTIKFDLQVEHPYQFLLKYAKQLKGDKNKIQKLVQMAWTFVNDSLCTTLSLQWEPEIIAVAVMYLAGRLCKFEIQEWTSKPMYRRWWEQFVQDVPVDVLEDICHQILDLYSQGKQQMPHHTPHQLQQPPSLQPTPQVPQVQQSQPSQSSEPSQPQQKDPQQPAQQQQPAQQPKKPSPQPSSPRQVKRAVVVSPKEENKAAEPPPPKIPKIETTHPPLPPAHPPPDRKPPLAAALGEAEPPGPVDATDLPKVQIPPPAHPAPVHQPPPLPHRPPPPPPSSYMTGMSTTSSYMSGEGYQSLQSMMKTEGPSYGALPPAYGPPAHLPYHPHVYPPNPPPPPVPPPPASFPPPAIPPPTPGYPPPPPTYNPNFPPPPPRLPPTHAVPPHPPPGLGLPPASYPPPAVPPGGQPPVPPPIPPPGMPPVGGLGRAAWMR

In general, IC50 refers to the midpoint of a concentration-inhibition curve. Consider `O=C1CCCN1c1ccc2c(-c3nc(N[C@H]4CCCNC4)ncc3C(F)(F)F)c[nH]c2c1` [Example T-13], for which the IC50 in test [1] is over 500 nM; in test [2], over 500 nM; in test [3], over 500 nM; in test [4], under 50 nM.

As for `O=C(Nc1ccc2c(-c3nc(N[C@H]4CCCNC4)ncc3C(F)(F)F)c[nH]c2c1Br)C1CC1` [Example T-08], the IC50 in test [1] was over 500 nM; in test [2], over 500 nM; in test [3] it was over 500 nM; in test [4], under 50 nM.

As to `COC(=O)N(C)c1ccc2c(-c3nc(N[C@H]4CCCNC4)ncc3C(F)(F)F)c[nH]c2c1C(F)F` [Example T-163], the IC50 is over 500 nM in test [1], over 500 nM in test [2], over 500 nM in test [3] and under 50 nM in test [4].

In the case of `COC(=O)Nc1ccc2c(-c3nc(N[C@H]4CCCNC4)ncc3C(F)(F)F)c[nH]c2c1C#N` [Example T-27], the IC50 was over 500 nM in test [1], over 500 nM in test [2], over 500 nM in test [3] and under 50 nM in test [4].

For `COC(=O)Nc1ccc2c(-c3nc(N[C@H]4CCC(C)(C)NC4)ncc3C(F)(F)F)c[nH]c2c1C(F)F` [Example T-107], the IC50 in test [1] was over 500 nM; in test [2], over 500 nM; in test [3], over 500 nM; in test [4], under 50 nM.

`CC(=O)Nc1ccc2c(-c3nc(N[C@H]4CCCNC4)ncc3C(F)(F)F)c[nH]c2c1` [Example T-10]: the IC50 in test [1] was over 500 nM; in test [2] it was over 500 nM; in test [3], over 500 nM; in test [4], under 50 nM.

Turning to `COC(=O)Nc1ccc2c(-c3nc(N[C@H]4CC[C@@H](C)NC4)ncc3C(F)(F)F)c[nH]c2c1Br` [Example T-143], the IC50 in test [1] was over 500 nM; in test [2] it was over 500 nM; in test [3], over 500 nM; in test [4], 50 to 500 nM.

As for `COC(=O)Nc1ccc2c(-c3nc(N[C@H]4CCCNC4)ncc3C(F)(F)F)c[nH]c2c1OCC(F)(F)F` [Example T-139], the IC50 was over 500 nM in test [1], over 500 nM in test [2], over 500 nM in test [3] and under 50 nM in test [4].

In the case of `COC(=O)Nc1ccc2c(-c3nc(N[C@H]4CCC(C)(C)NC4)ncc3C(F)(F)F)c[nH]c2c1OC(F)F` [Example T-108], the IC50 in test [1] is over 500 nM; in test [2] it was over 500 nM; in test [3] it was over 500 nM; in test [4], under 50 nM.

As to `COC(=O)Nc1ccc2c(-c3nc(N[C@H]4CCCNC4)ncc3C(F)(F)F)c[nH]c2c1[S+]([O-])C(C)C` (stereo partly drawn) [Example T-65], the 50% inhibitory concentration (IC50) in test [1] was over 500 nM; in test [2] it was over 500 nM; in test [3] it was over 500 nM; in test [4], under 50 nM.

As to `COC(=O)Nc1ccc2c(-c3nc(N[C@H]4[C@@H]5CNC[C@@H]54)ncc3C(F)(F)F)c[nH]c2c1Br` [Example T-24], the IC50 in test [1] is over 500 nM; in test [2], over 500 nM; in test [3] it was over 500 nM; in test [4], under 50 nM.

For `O=C(Nc1ccc2c(-c3nc(N[C@H]4CCCNC4)ncc3C(F)(F)F)c[nH]c2c1)C1CC1` [Example T-11], the IC50 in test [1] is over 500 nM; in test [2], over 500 nM; in test [3] it was over 500 nM; in test [4], under 50 nM.

For `COC(=O)Nc1ccc2c(-c3nc(N[C@@H]4CCC[C@@H](N)C4)ncc3C(F)(F)F)c[nH]c2c1Br` [Example T-23], the IC50 in test [1] is over 500 nM; in test [2] it was over 500 nM; in test [3], over 500 nM; in test [4], 50 to 500 nM.

For the compound `CN1CCC[C@H](Nc2ncc(C(F)(F)F)c(-c3c[nH]c4cc(N5CCCC5=O)ccc34)n2)C1` [Example T-05], the IC50 in test [1] is over 500 nM; in test [2], over 500 nM; in test [3], over 500 nM; in test [4] it was under 50 nM.

Regarding `COC(=O)Nc1ccc2c(-c3nc(N[C@H]4CCCNC4)ncc3C(F)(F)F)c[nH]c2c1C(C)C` [Example T-69], the IC50 in test [1] was over 500 nM; in test [2] it was over 500 nM; in test [3], over 500 nM; in test [4], under 50 nM.

For `O=C1OCCN1c1ccc2c(-c3nc(N[C@H]4CCCNC4)ncc3C(F)(F)F)c[nH]c2c1Br` [Example T-12], the IC50 in test [1] was over 500 nM; in test [2], over 500 nM; in test [3] it was over 500 nM; in test [4] it was under 50 nM.

On to `COC(=O)Nc1ccc2c(-c3nc(N[C@H]4CCC5(CC5)NC4)ncc3C(F)(F)F)c[nH]c2c1OC(F)F` [Example T-154], for which the IC50 is over 500 nM in test [1], over 500 nM in test [2], over 500 nM in test [3] and under 50 nM in test [4].

Regarding `COC(=O)Nc1ccc2c(-c3nc(N[C@H]4CCC(C)(C)NC4)ncc3C(F)(F)F)c[nH]c2c1C1CC1(F)F` (stereo partly drawn) [Example T-105], the IC50 in test [1] was over 500 nM; in test [2] it was over 500 nM; in test [3], over 500 nM; in test [4], under 50 nM.

For the compound `CC(=O)Nc1ccc2c(-c3nc(N[C@H]4CCCNC4)ncc3C(F)(F)F)c[nH]c2c1Br` [Example T-09], the IC50 in test [1] was over 500 nM; in test [2], over 500 nM; in test [3], over 500 nM; in test [4], under 50 nM.

`COC(=O)Nc1ccc2c(-c3nc(N[C@H]4CC[C@@H](C)NC4)ncc3C(F)(F)F)c[nH]c2c1OC` [Example T-140]: the IC50 in test [1] is over 500 nM; in test [2] it was over 500 nM; in test [3], over 500 nM; in test [4], 50 to 500 nM.

For `COC(=O)Nc1ccc2c(-c3nc(N[C@H]4CCC(C)NC4)ncc3C(F)(F)F)c[nH]c2c1C1CC1` (stereo partly drawn) [Example T-129], the half-inhibitory concentration (IC50) in test [1] is over 500 nM; in test [2] it was over 500 nM; in test [3], over 500 nM; in test [4] it was 50 to 500 nM.

Consider `COC(=O)Nc1ccc2c(-c3nc(N[C@@H]4CCC[C@H](N)C4)ncc3C(F)(F)F)c[nH]c2c1Br` [Example T-22], for which the IC50 in test [1] is over 500 nM; in test [2] it was over 500 nM; in test [3], over 500 nM; in test [4], 50 to 500 nM.

Turning to `COC(=O)Nc1ccc2c(-c3nc(NC4CC5CNCC5C4)ncc3C(F)(F)F)c[nH]c2c1Br` (stereo not drawn) [Example T-28], the IC50 in test [1] is over 500 nM; in test [2], over 500 nM; in test [3], over 500 nM; in test [4] it was 50 to 500 nM.

Consider `COC(=O)Nc1ccc2c(-c3nc(N[C@H]4CCCNC4)ncc3C(F)(F)F)c[nH]c2c1C(F)F` [Example T-155], for which the IC50 is over 500 nM in test [1], over 500 nM in test [2], over 500 nM in test [3] and under 50 nM in test [4].

In the case of `CCOc1c(NC(=O)OC)ccc2c(-c3nc(N[C@H]4CCCNC4)ncc3C(F)(F)F)c[nH]c12` [Example T-138], the IC50 in test [1] was over 500 nM; in test [2], over 500 nM; in test [3] it was over 500 nM; in test [4], under 50 nM.

For `COC(=O)N(C)c1ccc2c(-c3nc(N[C@H]4CCCNC4)ncc3C(F)(F)F)c[nH]c2c1C(F)(F)F` [Example T-164], the IC50 in test [1] was over 500 nM; in test [2] it was over 500 nM; in test [3] it was over 500 nM; in test [4], under 50 nM.

Take `O=C1CCCCN1c1ccc2c(-c3nc(N[C@H]4CCCNC4)ncc3C(F)(F)F)c[nH]c2c1Br` [Example T-03]: the IC50 is over 500 nM in test [1], over 500 nM in test [2], over 500 nM in test [3] and under 50 nM in test [4].

Consider `COC(=O)Nc1ccc2c(-c3nc(N[C@H]4CCCNC4)ncc3C(F)(F)F)c[nH]c2c1P(C)(C)=O` [Example T-14], for which the IC50 was over 500 nM in test [1], over 500 nM in test [2], over 500 nM in test [3] and under 50 nM in test [4].

As to `COC(=O)Nc1ccc2c(-c3nc(O[C@H]4CCCNC4)ncc3C(F)(F)F)c[nH]c2c1Br` [Example T-02], the IC50 is over 500 nM in test [1], over 500 nM in test [2], over 500 nM in test [3] and 50 to 500 nM in test [4].

For `CCOc1c(NC(=O)OC)ccc2c(-c3nc(N[C@H]4CCCN(C)C4)ncc3C(F)(F)F)c[nH]c12` [Example T-161], the IC50 is over 500 nM in test [1], over 500 nM in test [2], over 500 nM in test [3] and under 50 nM in test [4].

As for `O=C1CCN1c1ccc2c(-c3nc(N[C@H]4CCCNC4)ncc3C(F)(F)F)c[nH]c2c1Br` [Example T-18], the IC50 in test [1] is over 500 nM; in test [2], over 500 nM; in test [3] it was over 500 nM; in test [4] it was under 50 nM.

With `COC(=O)Nc1ccc2c(-c3nc(N[C@H]4CCCNC4)ncc3C(F)(F)F)c[nH]c2c1-c1ccccc1` [Example T-60], the IC50 was over 500 nM in test [1], over 500 nM in test [2], over 500 nM in test [3] and under 50 nM in test [4].

With `COC(=O)Nc1ccc2c(-c3nc(N[C@H]4CC[C@@H](C)NC4)ncc3C(F)(F)F)c[nH]c2c1Cl` [Example T-146], the IC50 was over 500 nM in test [1], over 500 nM in test [2], over 500 nM in test [3] and 50 to 500 nM in test [4].

The values above are taken from patent US20230295130A1, “COMPOUND USEFUL AS CDK7 KINASE INHIBITOR AND USE THEREOF” (TYK MEDICINES, INC., priority 2020, published 2023).
